Two compounds from article PMC11784115, “Trypsin-instructed bioactive peptide nanodrugs with cascading transformations to improve chemotherapy against colon cancer” (Journal of Nanobiotechnology, 2025) can be followed below.

Read-outs that look alike come from different tables or passages of the source. Where a SMILES comes first, the peptide text is derived from it. The star is where a group is joined. Acetyl(2-naphthyl) = O=C(Cc1ccc2ccccc2c1)* A value given as a limit tells only on which side of the number the result lay.

The subject of data set [1] is trypsin (Tps). In words: in vitro. The note with it: isolated enzyme.
Protocol: 1-Pept (1 mg/mL) was dissolved in PBS solution, and the pH was modulated to a neutral condition. After that, Tps (1 U/mL) was added to the solution to trigger the conversion of 1-Pept (NapFFGYKCD) into Pept (NapFFGYK). At fixed time points, 50 µL 1-Pept solution was taken out and mixed with 150 µL methanol to obtain the mixed solution. Finally, the mixed solution was analyzed with HPLC-MS to investigate the conversion rate.
Data set [2] in a line: Minimum gelation concentration (MGC) by vial inversion. It counts as physicochemical. The note with it: PBS, neutral pH, Tps 5 U/mL or Dox 0.1 eq where present. The procedure: The enzyme-directed assembly behavior of 1-Pept was subsequently investigated. 1-Pept was dissolved in PBS solution, and the pH was adjusted to neutral condition. The formation of 1-Pept nanofibrillar hydrogels was monitored via a vial inversion method. 1-Pept/Tps NFs were obtained after mixing Tps (5 U/mL) with 1-Pept solution. The MGC of 1-Pept NFs and 1-Pept/Tps NFs could be determined when the samples could not flow.
1-Pept (1.0 wt%) was dissolved in PBS solution and mixed with 0.1 equivalents of Dox to obtain 1-Pept/Dox NFs (1.0 wt%/0.1 eq), and the solutions were kept at 25 °C to obtain 1-Pept/Dox NFs. The MGC, CAC, microscopic morphology, CD analysis, and viscoelasticity were tested according to the above procedures. The intermolecular force between 1-Pept and Dox was examined with fluorescent spectroscopy. Simply, Dox solution (20 µg/mL) was incubated with different concentrations (125, 62.5, 31.3, 15.6, 7.81, and 3.90 µg/mL) of 1-Pept solutions, and the fluorescent spectrum of the sample was recorded at a fixed excitation wavelength of […]. Ulteriorly, the electrostatic interactions between 1-Pept and Dox were explored by adding sodium chloride solution (2 M).

Data set [3] relates to rabbit red blood cells. The procedure: To begin with, the biocompatibility of 1-Pept/Dox NFs was explored from hematological compatibility and histocompatibility. The hemolysis ratio of 1-Pept/Dox NFs was evaluated based on rabbit red blood cells (RBCs). […] Then, the samples were first centrifuged to obtain the supernatant and measured the absorbance at 540 nm. Deionized water served as a positive group and 0.9% of the NaCl solution was utilized as a negative group. The hemolysis ratio of samples was obtained according to the hemolysis rate equation.

Data set [4] concerns HT29 cells. The class given is cell-based, human. As for the experimental part:
HT29 cells were incubated in a 96-well microplate and cultured with 1-Pept/Dox NFs for 48 h. The concentrations of Dox were between 12.5 and 0.391 µM, and 1-Pept were between 125 and 3.91 µM. Then, a fixed volume of 20 µL MTT (5 mg/mL) was added to the wells for co-incubation. After 4 h, the generated formazan could be found. After dissolving in DMSO, the absorbance values were recorded at 490 nm utilizing a microplate reader (Multiskan FC). By comparing the absorbance of the samples and the controls, the cell’s survival rates were calculated. The IC50 values were obtained by Origin 8.0 software. Simultaneously, the MTT assays for NCM460, SW620, SW480, and HCT-15 were performed using the aforementioned procedures.

In data set [5] the test system is HT29-xenografted tumor. In words: In vivo antitumor efficacy, HT29 xenograft. The note with it: for percentage of Ki67-positive signals in tumor tissues: tumor tissue, day 21. Also on record: species or system BALB/C nude mice. The procedure: HT29 tumor-bearing mice model was developed to study the antitumor effect in vivo of 1-Pept/Dox NFs. HT29 cell suspension (100 µL, 5.0 × 10^6 cells) was mixed with an equal volume of Matrigel. Then, the mixtures were subcutaneously injected into the right back of male BALB/C nude mice (6–8 weeks, Jinan Pengyue Experimental Animal Breeding Co., Itd, China). […] (1) PBS; (2) 1-Pept NFs; […] The dosage was fixed as 13 µmol/kg for Dox moiety and 130 µmol/kg for 1-Pept. The tumor size and body weight of the mice were determined every three days. The tumor size was obtained using the equation V = L×W^2/2, where L and W denote the length and width, respectively. At the end of the day 21st, the tumor tissues were collected for HE staining to observe morphological changes in tumor cells. The actin and tubulin staining of the cell sections was also conducted to study the cytoskeleton changes after drug treatment. The Ki-67 staining was conducted to observe the proliferative status of tumor cells. Meanwhile, the signals of TUNEL and expressions of activated caspase-3 were also measured by immunohistochemical staining.

The nature of data set [6]: In vitro release from 1-Pept/Dox NFs (HPLC), Ritger-Peppas fitting. The class given is physicochemical. The procedure:
The in vitro drug release profile of 1-Pept/Dox NFs was conducted in a constant temperature vibrator (40 rpm, 37 °C). 1-Pept/Dox NFs (200 µL, 1.0 wt%/0.1 eq) were prepared and incubated with 200 µL PBS buffer (pH = 7.4, 6.5 and 5.5). At particular time points, 200 µL liquid supernatant was sucked out and further analyzed by HPLC. Simultaneously, 200 µL fresh PBS was added to maintain a fixed volume. Free Dox solutions were used as controls.

Where [7] appears, read: free Dox solution, 12-h release.

On to `NCCCC[C@H](NC(=O)[C@H](Cc1ccc(O)cc1)NC(=O)CNC(=O)[C@H](Cc1ccccc1)NC(=O)[C@H](Cc1ccccc1)NC(=O)Cc1ccc2ccccc2c1)C(=O)N[C@@H](CS)C(=O)N[C@@H](CC(=O)O)C(=O)O` [1-Pept, 2-Naphthylacetic acid-Phe-Phe-Gly-Tyr-Lys-Cys-Asp] ({Acetyl(2-naphthyl)}-FFGYKCD-OH), for which the metabolised at 72 h, 1 mg/mL in data set [1] is > 90%. Moreover, the “minimum gelation concentration (MGC)” value in data set [2] is 0.8 wt%. In data set [3] (red cells of rabbit, 1 h, 1.0 wt%), this compound yielded a hemolysis rate of 1.1%. Inhibition in data set [4] (48 h) was half-maximal at 134 µM (IC50). Besides, the “percentage of Ki67-positive signals in tumor tissues” value in data set [5] came to 60%.

With `COc1cccc2c1C(=O)c1c(O)c3c(c(O)c1C2=O)C[C@@](O)(C(=O)CO)C[C@@H]3O[C@H]1C[C@H](N)[C@H](O)[C@H](C)O1` [Dox, Doxorubicin], in data set [3], the hemolysis rate is 2.8%. In addition, the IC50 (commonly the concentration at which inhibition is half-maximal) in data set [4] (HT29, 48 h, MTT, read-out: IC50 value of Dox) was found to be 2.8 µM. In addition, in data set [6] (free Dox solution control, PBS, 37 °C, 40 rpm, HPLC), the “cumulative release of Dox at 12 h” value was determined as 51%. Further, in data set [6] (setting [7]), the “Ritger-Peppas exponential factor n, Dox release” value worked out at 0.35 and the “Ritger-Peppas k, Dox release” value is reported as 0.21. The “tumor volume growth rate on the 21st day” value in data set [5] (peritumoral s.c. injection days 1, 4, 7, 10, 13 µmol/kg Dox, 130 µmol/kg 1-Pept) was determined as 3.3. In addition, in data set [5], the “percentage of Ki67-positive signals in tumor tissues” value is on record as 45%.
